# Results taken from patent publication US20200392158A1, “INHIBITORS OF LEUCINE RICH REPEAT KINASE 2” (GLAXOSMITHKLINE INTELLECTUAL PROPERTY DEVELOPMENT LIMITED, priority 2017, published 2020).
# Target: T1, full length G2019 human LRRK2 (Homo sapiens, UniProt Q5S007, R50H)
# T1 construct: made in house; host or cells: HEK293 6E cells transduced with BacMam virus (virus generated in Sf9 cells)
# Assay: Full length G2019 human LRRK2 inhibition mass spectrometry assay
# Type: biochemical
# Details: LRRKtide to phospho-LRRKtide conversion, RapidFire MS, 2 mM ATP
# Experimental: a. Full Length G2019 Human LRRK2 Inhibition Mass Spectrometry Assay
# This assay for Leucine Rich Repeat Kinase 2 (LRRK2) inhibition is based on the direct measurement of the peptide ‘LRRKtide’ (LRRKtide: RLGRDKYKT*LRQIRQ and “*” refers to the site of phosphorylation.) and phosphorylated ‘LRRKtide’ using a high throughput Rapid Fire mass spectrometry assay. Inhibitors are compounds that reduce the conversion of LRRKtide to phospho-LRRKtide.
# • 1) Compounds were dissolved in 100% DMSO at a concentration of 10 mM, and 11-point dose response curves generated using a 1 in 4 serial dilution in DMSO. 100 nL of this dilution series was then added to a 384 well, v bottom polypropylene plate (Greiner 781280), excluding columns 6 and 18. 100 nL of DMSO were added to column 6 to serve as the high control, while column 18 served as the low control containing assay buffer in place of the LRRK2 protein. Assay dilution gave a top final assay concentration of test compound of […] • 2) 5 μL of ‘enzyme solution’ containing 2× final assay concentration of purified recombinant Full length Flag-LRRK2 in assay buffer (50 mM Hepes, pH 7.2, 10 mM MgCl2, 150 mM NaCl, 5% glycerol, 0.0025% Triton X-100 and 1 mM DTT) were added to all wells using a Multidrop Combi dispenser (ThermoFisher Scientifiec), giving a final assay concentration of 25 nM LRRK2 enzyme (final concentration may vary depending on specific activity of different enzyme batches). • 3) 5 μL of substrate solution containing 50 μM LRRKtide peptide substrate and […] was added to all wells of the plate using a Multidrop Combi dispenser giving a final assay concentration of 25 μM LRRKtide peptide and 2 mM ATP. Test plates were then incubated for 1 hour at room temperature. (Incubation may vary depending on rate and linearity of reaction with different enzyme batches). • 4) 50 μl of 1% formic acid in laboratory grade water was added to all wells to quench the reaction, and plates were heat-sealed prior to centrifugation at 1348×g for 10 minutes. Test plates were then analysed on an Agilent RapidFire High Throughput solid phase extraction system coupled to AB Sciex API 4000 triple quadropole mass spectrometer with the following setting:
# • Sip Height=2 mm, Aspirate=500 ms, Load time=3000 ms, Elution time=3000 ms, Requilibration=500 ms. • Flow rates: pump 1=1.5 mL/min, pump 2 1.25 mL/min pump 3=0.8 mL/min
# Mass Spectrometer Settings: • LRRKtide Detection settings: Q1 mass 644.8 Da, Q3 mass 638.8, declustering potential 76 volts, collision energy 37 volts, CXP 34 volts. • Phospho-LRRKtide Detection settings: Q1 mass 671.4 Da, Q3 mass 638.8, Declustering potential 76 volts, Collision energy 37 volts, CXP 34 volts. • A C4 cartridge was used and running buffers were: A (aqueous) 0.1% formic acid in water B (organic) 0.1% formic acid, 80% acetonitrile, 20% water. • Collision gas: 12, Curtain gas: 25, Ion Source gas (1): 60, Ion Source gas (2): 60, Ion Spray Voltage: 5500, Temperature: 600, Interface Heater: ON. • Resolution Q1: low, Resolution Q3: low. • 5) Data were analysed using ActivityBase software (IDBS). A percent conversion from LRRKtide to Phospho-LRRKtide was calculated using the following formula:
# % conversion=(Phospho-LRRKtide product peak area/(Phospho-LRRKtide product peak area+LRRKtide substrate peak area))*100 • A logistic 4 parameter curve fit was applied, using the following formula,
# [formula] • Where x is the concentration of test sample, y is inhibition (%), a is the minimum, b is the Hill slope, c is the IC50 and d is the maximum. From this, the pIC50 was derived (−log IC50).
# T1 sequence (Q5S007 with tags, fused parts or gaps R50H): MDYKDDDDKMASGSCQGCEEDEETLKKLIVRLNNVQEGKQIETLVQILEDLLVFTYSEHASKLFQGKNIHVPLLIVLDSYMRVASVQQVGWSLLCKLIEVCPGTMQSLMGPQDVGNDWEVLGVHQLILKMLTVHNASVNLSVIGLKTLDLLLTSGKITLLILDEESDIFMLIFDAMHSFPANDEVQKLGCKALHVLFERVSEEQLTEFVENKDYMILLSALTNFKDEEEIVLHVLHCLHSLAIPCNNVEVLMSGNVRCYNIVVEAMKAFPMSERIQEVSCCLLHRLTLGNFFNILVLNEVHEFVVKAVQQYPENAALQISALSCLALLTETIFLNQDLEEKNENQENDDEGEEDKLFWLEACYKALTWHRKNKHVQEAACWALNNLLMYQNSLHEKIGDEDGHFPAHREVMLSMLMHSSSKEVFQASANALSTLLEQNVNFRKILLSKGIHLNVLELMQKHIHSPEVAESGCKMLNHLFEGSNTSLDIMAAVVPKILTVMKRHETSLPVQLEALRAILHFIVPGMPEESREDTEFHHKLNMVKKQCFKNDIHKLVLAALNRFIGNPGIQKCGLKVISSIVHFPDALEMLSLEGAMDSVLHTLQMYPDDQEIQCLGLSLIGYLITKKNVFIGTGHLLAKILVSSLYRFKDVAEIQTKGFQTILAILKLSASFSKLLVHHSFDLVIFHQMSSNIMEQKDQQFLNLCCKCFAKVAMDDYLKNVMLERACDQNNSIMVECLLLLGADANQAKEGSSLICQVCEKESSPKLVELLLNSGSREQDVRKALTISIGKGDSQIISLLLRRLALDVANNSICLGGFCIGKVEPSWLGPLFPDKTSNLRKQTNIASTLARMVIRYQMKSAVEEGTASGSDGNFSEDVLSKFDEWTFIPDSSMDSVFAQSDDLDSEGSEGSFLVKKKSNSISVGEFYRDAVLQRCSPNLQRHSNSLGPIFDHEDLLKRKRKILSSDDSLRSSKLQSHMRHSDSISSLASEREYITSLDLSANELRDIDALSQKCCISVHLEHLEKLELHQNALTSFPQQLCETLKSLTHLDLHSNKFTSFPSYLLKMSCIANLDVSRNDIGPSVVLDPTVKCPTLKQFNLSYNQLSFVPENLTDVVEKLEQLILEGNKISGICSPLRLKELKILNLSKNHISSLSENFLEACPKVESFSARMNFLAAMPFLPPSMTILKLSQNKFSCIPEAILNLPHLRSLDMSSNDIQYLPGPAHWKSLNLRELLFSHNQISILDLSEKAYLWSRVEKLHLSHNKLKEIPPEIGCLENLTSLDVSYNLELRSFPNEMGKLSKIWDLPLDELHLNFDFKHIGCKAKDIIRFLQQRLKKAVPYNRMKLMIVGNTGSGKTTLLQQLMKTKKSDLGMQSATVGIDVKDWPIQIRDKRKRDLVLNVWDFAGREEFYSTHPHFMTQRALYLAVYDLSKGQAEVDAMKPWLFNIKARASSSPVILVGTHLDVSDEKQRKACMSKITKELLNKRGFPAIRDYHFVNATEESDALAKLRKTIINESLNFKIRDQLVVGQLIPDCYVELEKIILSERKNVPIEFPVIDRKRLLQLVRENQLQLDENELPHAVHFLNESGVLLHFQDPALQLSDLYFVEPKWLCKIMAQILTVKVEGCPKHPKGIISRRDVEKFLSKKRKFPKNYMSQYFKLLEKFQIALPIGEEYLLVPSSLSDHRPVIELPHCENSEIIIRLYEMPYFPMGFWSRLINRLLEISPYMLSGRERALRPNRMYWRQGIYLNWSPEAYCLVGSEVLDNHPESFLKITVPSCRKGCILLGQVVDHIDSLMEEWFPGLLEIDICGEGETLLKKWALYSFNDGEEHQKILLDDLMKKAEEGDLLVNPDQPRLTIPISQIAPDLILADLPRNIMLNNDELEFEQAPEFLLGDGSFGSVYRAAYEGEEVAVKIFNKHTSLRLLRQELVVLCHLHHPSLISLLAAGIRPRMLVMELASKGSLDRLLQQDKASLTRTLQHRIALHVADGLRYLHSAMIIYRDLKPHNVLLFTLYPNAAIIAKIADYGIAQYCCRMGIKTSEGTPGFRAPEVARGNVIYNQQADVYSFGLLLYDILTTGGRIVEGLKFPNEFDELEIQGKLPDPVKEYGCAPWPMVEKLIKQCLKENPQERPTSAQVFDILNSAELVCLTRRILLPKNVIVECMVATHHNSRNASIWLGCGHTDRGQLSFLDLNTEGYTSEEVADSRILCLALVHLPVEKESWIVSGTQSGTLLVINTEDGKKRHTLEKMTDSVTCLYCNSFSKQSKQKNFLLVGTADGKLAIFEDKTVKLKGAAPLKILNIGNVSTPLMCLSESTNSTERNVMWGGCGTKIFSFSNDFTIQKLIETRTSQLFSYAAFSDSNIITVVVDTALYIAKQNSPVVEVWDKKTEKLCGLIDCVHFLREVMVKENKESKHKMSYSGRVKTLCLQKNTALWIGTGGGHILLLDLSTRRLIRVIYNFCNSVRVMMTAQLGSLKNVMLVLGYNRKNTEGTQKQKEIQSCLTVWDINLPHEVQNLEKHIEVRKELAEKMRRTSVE
row,Structure (SMILES),IC50 [nM]
1,"Cc1c2c(nn1C1CCCOC1)OCCCNc1nc(ncc1Cl)N2 (single isomer, unassigned) [E11, 14-Chloro-4-methyl-5-(oxan-3-yl)-8-oxa-2,5,6,12,16,17-hexaaza tricyclo-[11.3.1.0^3,7]heptadeca-1(16),3,6,13(17),14-pentaene]",≤ 100
2,"CCC1CCOc2nn(C3CCOCC3)c(C)c2Nc2ncc(Cl)c(n2)N1 (single isomer, unassigned) [E19, 14-chloro-11-ethyl-4-methyl-5-(oxan-4-yl)-8-oxa-2,5,6,12,16,17-hexaazatricyclo[11.3.1.0^3,7]heptadeca-1(16),3,6,13(17),14-pentaene]",≤ 10000
3,"Cc1c2c(nn1C1CCOCC1F)OCCC(C)Nc1nc(ncc1Cl)N2 (single isomer, unassigned) [E26, 14-chloro-5-(3-fluorooxan-4-yl)-4,11-dimethyl-8-oxa-2,5,6,12,16,17-hexaazatricyclo [11.3.1.0^3,7]heptadeca-1(17),3,6,13,15-pentaene]",≤ 10000
4,"Cc1c2c(nn1C1CCOCC1F)OCCC(C)Nc1nc(ncc1Cl)N2 (single isomer, unassigned) [E28, 14-chloro-5-(3-fluorooxan-4-yl)-4,11-dimethyl-8-oxa-2,5,6,12,16,17-hexaazatricyclo [11.3.1.0^3,7]heptadeca-1(17),3,6,13,15-pentaene]",≤ 100
5,"Cc1c2c(nn1C1CCOCC1)OCCC(C)Nc1nc(ncc1Br)N2 (single isomer, unassigned) [E29, 14-bromo-4,11-dimethyl-5-(oxan-4-yl)-8-oxa-2,5,6,12,16,17-hexaaza tricyclo[11.3.1.0^3,7]heptadeca-1(16),3,6,13(17),14-pentaene]",≤ 10000
6,"Cc1c2c(nn1C1CCOCC1)OCC(C)C(C)Nc1nc(ncc1Cl)N2 (single isomer, unassigned) [E31, 14-chloro-4,10,11-trimethyl-5-(oxan-4-yl)-8-oxa-2,5,6,12,16,17-hexaazatricyclo [11.3.1.0^3,7]heptadeca-1(16),3,6,13(17),14-pentaene]",≤ 100
7,"Cc1c2c(nn1C1CCOCC1)OCC(C)C(C)Nc1nc(ncc1Cl)N2 (single isomer, unassigned) [E33, 14-chloro-4,10,11-trimethyl-5-(oxan-4-yl)-8-oxa-2,5,6,12,16,17-hexaazatricyclo [11.3.1.0^3,7]heptadeca-1(16),3,6,13(17),14-pentaene]",≤ 10000
8,"Cc1c2c(nn1C1CCOCC1)OCC(C)C(C)Nc1nc(ncc1Cl)N2 (single isomer, unassigned) [E34, 14-chloro-4,10,11-trimethyl-5-(oxan-4-yl)-8-oxa-2,5,6,12,16,17-hexaazatricyclo [11.3.1.0^3,7]heptadeca-1(16),3,6,13(17),14-pentaene]",≤ 10000
9,"COCC1CCOc2nn(C3CCOCC3)c(C)c2Nc2ncc(Cl)c(n2)N1 (single isomer, unassigned) [E36, 14-chloro-11-(methoxymethyl)-4-methyl-5-(oxan-4-yl)-8-oxa-2,5,6, 12,16,17-hexaazatricyclo-[11.3.1.0^3,7]heptadeca-1(16),3,6,13(17),14-pentaene]",≤ 100
10,"Cc1c2c(nn1C(C)(C)C#N)OCCC(C)Nc1nc(ncc1Cl)N2 (single isomer, unassigned) [E43, 2-{14-chloro-4,11-dimethyl-8-oxa-2,5,6,12,16,17-hexaazatricyclo [11.3.1.0^3,7]heptadeca-1(16),3,6,13(17),14-pentaen-5-yl}-2-methylpropanenitrile]",≤ 10000
11,"Cc1c2c(nn1C1CCC(N3C[C@H]4C[C@@H]3CO4)CC1)OCCCNc1nc(ncc1Cl)N2 (single isomer, unassigned) [E49]",≤ 100
12,"Cc1c2c(nn1C1CCC(N3C[C@@H]4C[C@H]3CO4)CC1)OCCCNc1nc(ncc1Cl)N2 (single isomer, unassigned) [E51]",≤ 100
13,"Cc1c2c(nn1C1CCOCC1)OCCC(CF)Nc1nc(ncc1Cl)N2 (single isomer, unassigned) [E53, 14-chloro-11-(fluoromethyl)-4-methyl-5-(oxan-4-yl)-8-oxa-2,5,6,12, 16,17-hexaazatricyclo[11.3.1.0^3,7]heptadeca-1(16),3,6,13(17),14-pentaene]",≤ 10000
14,"Cc1c2c(nn1C1CCC(N3C[C@H]4C[C@@H]3CO4)CC1)OCCC(C)Nc1nc(ncc1Cl)N2 (single isomer, unassigned) [E56]",≤ 10000
15,"Cc1c2c(nn1C1CCC(N3C[C@H]4C[C@@H]3CO4)CC1)OCCC(C)Nc1nc(ncc1Cl)N2 (single isomer, unassigned) [E58]",≤ 100
16,"COCCN1CCC(n2nc3c(c2C)Nc2ncc(Cl)c(n2)NCCCO3)C(F)C1 (single isomer, unassigned) [E60, trans-14-chloro-5-[3-fluoro-1-(2-methoxyethyl)piperidin-4-yl]-4-methyl-8-oxa-2,5,6,12,16,17-hexaazatricyclo[11.3.1.0^3,7]heptadeca 1(16),3,6,13(17),14-pentaene]",≤ 100
17,"Cc1c2c(nn1C1CCN(C3COC3)CC1F)OCCCNc1nc(ncc1Cl)N2 (single isomer, unassigned) [E62, trans-14-chloro-5-[3-fluoro-1-(oxetan-3-yl)piperidin-4-yl]-4-methyl-8-oxa-2,5,6,12,16,17-hexaazatricyclo[11.3.1.0^3,7]heptadeca-1(16),3,6,13(17),14-pentaene]",≤ 100
18,"Cc1c2c(nn1C1CCOCC1)OCC(F)C(C)Nc1nc(ncc1Cl)N2 (single isomer, unassigned) [E63, 14-Chloro-10-fluoro-4,11-dimethyl-5-(oxan-4-yl)-8-oxa-2,5,6,12, 16,17-hexaazatricyclo[11.3.1.0^3,7]heptadeca-1(16),3,6,13(17),14-pentaene]",≤ 10000
19,"Cc1c2c(nn1C1CCCN(C3COC3)C1)OCC[C@@H](C)Nc1nc(ncc1Cl)N2 (single isomer, unassigned) [E68]",≤ 100
20,"Cc1c2c(nn1C1CCOC(C)C1)OCCC(C)Nc1nc(ncc1Cl)N2 (single isomer, unassigned) [E84, 14-chloro-4,11-dimethyl-5-(2-methyloxan-4-yl)-8-oxa-2,5,6,12, 16,17-hexaazatricyclo[11.3.1.0^3,7]heptadeca-1(16),3,6,13(17),14-pentaene]",≤ 100
21,"Cc1c2c(nn1C1CCOCC1)OCCC(C(F)F)Nc1nc(ncc1Cl)N2 (single isomer, unassigned) [E89, 14-chloro-11-(difluoromethyl)-4-methyl-5-(oxan-4-yl)-8-oxa-2,5,6, 12,16,17-hexaazatricyclo[11.3.1.0^3,7]heptadeca-1(16),3,6,13(17),14-pentaene]",≤ 10000
22,"Cc1c2c(nn1C1CCC(N3C[C@@H]4C[C@H]3CO4)CC1)OCCC(C)Nc1nc(ncc1Cl)N2 (single isomer, unassigned) [E105]",≤ 100
23,"Cc1c2c(nn1C1CCOCC1)OC(C)CCNc1nc(ncc1Cl)N2 (single isomer, unassigned) [E114, 14-chloro-4,9-dimethyl-5-(oxan-4-yl)-8-oxa-2,5,6,12,16,17-hexaazatricyclo[11.3.1.0^3,7]heptadeca-1(16),3,6,13(17),14-pentaene]",≤ 100
24,"COC1CNc2nc(ncc2C(F)(F)F)Nc2c(nn(C3CCOCC3)c2C)OC1 (single isomer, unassigned) [E120, 10-methoxy-4-methyl-5-(oxan-4-yl)-14-(trifluoromethyl)-8-oxa-2,5,6,12,16,17-hexaazatricyclo[11.3.1.0^3,7] heptadeca-1(16),3,6,13(17),14-pentaene]",≤ 10000
